Columns and labels:
TRPV2 = target: T1, TRPV2 (Rattus norvegicus, UniProt Q9WUD2); assay: Whole-cell recording of 2-APB-activated TRPV2 in HEK 293T cells; type: cell-based
T1 construct: expressed in transfected cells; host or cells: HEK 293T
Text: (§1) The WT mouse TRPV3 (mTRPV3), human TRPV3 (hTRPV3), rat TRPV1, rat TRPV2, rat TRPM8, and mouse TRPA1 cDNAs were generously provided by Dr. Feng Qin (State University of New York at Buffalo, Buffalo, USA). The GFP-mTRPV3 WT and the mutants (mTRPV3-G573S and mTRPV3-G573C) in pcDNA4/TO vector were gifts from Dr. Michael X Zhu (The University of Texas Health Science Center at Houston, Houston, USA). The WT fTRPV3 was kindly provided by Dr. Makoto Tominaga (Department of Physiological Sciences, SOKENDAI, Okazaki, Japan). All mutations were made using the overlap-extension polymerase chain reaction method as previously described ([Tian et al., 2019]). The resulting mutations were then verified by DNA sequencing. […]
(§2) Conventional whole-cell and excised patch-clamp recording methods were used. […] For a subset of recordings, currents were amplified using an Axopatch 200B amplifier (Molecular Devices, Sunnyvale, CA) and recorded through a BNC-2090/MIO acquisition system (National Instruments, Austin, TX) using QStudio developed by Dr. Feng Qin at State University of New York at Buffalo. […] As determined by the conductance tests, the solution around a patch under study was fully controlled by the application of a flow rate of 100 μl/min or greater. […]

TRPV3 I644W = target: T2, TRPV3 I644W (Mus musculus, UniProt Q8K424, I644W); assay: Whole-cell recording of TRPV3 mutant I644W in HEK 293T cells; type: cell-based; details: 2-APB (1 mM)-evoked, –60 mV, read-out: IC50 for inhibition of TRPV3 mutant
T2 construct: expressed in transfected cells; host or cells: HEK 293T
Text: as §1, §2

human TRPV3 (hTRPV3) = target: T3, human TRPV3 (hTRPV3) (Homo sapiens, UniProt Q8NET8); assay: Whole-cell recording of 2-APB-evoked currents in hTRPV3-expressing HEK 293T cells; type: cell-based
T3 construct: expressed in transfected cells; host or cells: HEK 293T
Text: as §1, §2

TRPM8 = target: T4, TRPM8 (Rattus norvegicus, UniProt Q8R455); assay: Whole-cell recording of menthol-activated TRPM8 in HEK 293T cells; type: cell-based
T4 construct: expressed in transfected cells; host or cells: HEK 293T
Text: as §1, §2

TRPV1 = target: T5, TRPV1 (Rattus norvegicus, UniProt O35433); assay: Whole-cell recording of capsaicin-activated TRPV1 in HEK 293T cells; type: cell-based
T5 construct: expressed in transfected cells; host or cells: HEK 293T
Text: as §1, §2

[1] = system: TRPV3+/+ and TRPV3-/- mice; assay: Hot plate (55°C) paw withdrawal latency, Hargreaves test; type: in vivo, mouse
Method: All tests were conducted during the light phase of the light/dark cycle by a trained observer blind to the genotype. Mice were habituated to the testing room for 60 min prior to the behavioral tests unless otherwise stated. Hargreaves test was performed as described previously ([Wang et al., 2018]). All behavioral experiments were conducted in a double-blind manner. For measurement of thermal hyperalgesia, animals were placed individually, 30 min after injection, on a hot plate (Bioseb, Chaville, France) with the temperature adjusted to 55°C. The withdrawal latency of each hind paw was determined until nocifensive reaction appeared (licking foot). Right hind paws of mice were injected intraplantarly with 10 μl normal saline (0.9% NaCl). Left hind paws of mice were injected intraplantarly with 10 μl normal saline (supplemented with 10 or 50 μM dyclonine).

TRPA1 = target: T6, TRPA1 (Mus musculus, UniProt Q8BLA8); assay: Whole-cell recording of AITC-activated TRPA1 in HEK 293T cells; type: cell-based
T6 construct: expressed in transfected cells; host or cells: HEK 293T
Text: as §1, §2

TRPV3 I637A = target: T7, TRPV3 I637A (Mus musculus, UniProt Q8K424, I637A); assay: Whole-cell recording of TRPV3 mutant I637A in HEK 293T cells; type: cell-based; details: 2-APB (1 mM)-evoked, –60 mV, read-out: IC50 for inhibition of TRPV3 mutant
T7 construct: expressed in transfected cells; host or cells: HEK 293T
Text: as §1, §2

TRPV3 F666A = target: T8, TRPV3 F666A (Mus musculus, UniProt Q8K424, F666A); assay: Whole-cell recording of TRPV3 mutant F666A in HEK 293T cells; type: cell-based; details: 2-APB (1 mM)-evoked, –60 mV, read-out: IC50 for inhibition of TRPV3 mutant
T8 construct: expressed in transfected cells; host or cells: HEK 293T
Text: as §1, §2

T1 sequence (Q9WUD2 whole entry): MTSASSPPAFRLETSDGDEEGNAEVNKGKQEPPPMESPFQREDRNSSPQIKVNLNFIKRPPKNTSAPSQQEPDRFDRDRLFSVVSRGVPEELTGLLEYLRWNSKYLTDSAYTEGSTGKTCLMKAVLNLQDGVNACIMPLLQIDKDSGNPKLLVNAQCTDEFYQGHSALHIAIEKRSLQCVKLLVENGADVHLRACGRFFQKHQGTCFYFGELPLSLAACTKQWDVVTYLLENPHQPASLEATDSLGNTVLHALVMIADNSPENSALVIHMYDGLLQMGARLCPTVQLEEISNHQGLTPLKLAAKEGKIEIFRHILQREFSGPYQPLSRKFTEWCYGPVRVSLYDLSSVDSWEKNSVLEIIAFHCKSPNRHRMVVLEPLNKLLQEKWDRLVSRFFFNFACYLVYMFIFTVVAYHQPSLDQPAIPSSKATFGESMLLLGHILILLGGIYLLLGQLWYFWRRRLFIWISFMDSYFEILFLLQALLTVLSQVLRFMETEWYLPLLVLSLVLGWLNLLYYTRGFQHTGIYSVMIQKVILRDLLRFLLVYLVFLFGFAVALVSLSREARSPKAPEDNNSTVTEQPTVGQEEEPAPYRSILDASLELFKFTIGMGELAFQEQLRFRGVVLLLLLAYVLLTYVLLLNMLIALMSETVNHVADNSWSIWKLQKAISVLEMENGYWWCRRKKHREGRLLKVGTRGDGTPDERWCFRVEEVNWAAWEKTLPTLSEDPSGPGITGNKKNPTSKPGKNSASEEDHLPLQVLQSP
T3 sequence (Q8NET8 whole entry): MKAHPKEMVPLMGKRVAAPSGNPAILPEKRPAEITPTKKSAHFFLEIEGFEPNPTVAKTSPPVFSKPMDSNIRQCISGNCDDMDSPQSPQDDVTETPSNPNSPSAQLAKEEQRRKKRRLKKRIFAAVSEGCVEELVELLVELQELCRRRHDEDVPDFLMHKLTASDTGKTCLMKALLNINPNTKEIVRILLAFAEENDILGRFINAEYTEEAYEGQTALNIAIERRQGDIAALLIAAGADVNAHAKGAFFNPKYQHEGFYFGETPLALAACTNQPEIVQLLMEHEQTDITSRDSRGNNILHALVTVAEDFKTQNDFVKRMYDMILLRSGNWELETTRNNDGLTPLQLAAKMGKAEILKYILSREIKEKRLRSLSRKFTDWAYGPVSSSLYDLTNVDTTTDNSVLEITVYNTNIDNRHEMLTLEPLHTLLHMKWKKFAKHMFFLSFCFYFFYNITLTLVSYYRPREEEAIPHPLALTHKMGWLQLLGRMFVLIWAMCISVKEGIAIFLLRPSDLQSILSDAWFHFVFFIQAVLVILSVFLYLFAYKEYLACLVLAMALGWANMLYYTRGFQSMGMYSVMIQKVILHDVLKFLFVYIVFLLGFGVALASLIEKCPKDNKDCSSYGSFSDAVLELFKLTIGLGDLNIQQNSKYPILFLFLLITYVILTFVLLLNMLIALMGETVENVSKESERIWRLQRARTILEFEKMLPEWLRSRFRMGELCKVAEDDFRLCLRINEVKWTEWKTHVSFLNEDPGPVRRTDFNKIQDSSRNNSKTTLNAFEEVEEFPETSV
T5 sequence (O35433 whole entry): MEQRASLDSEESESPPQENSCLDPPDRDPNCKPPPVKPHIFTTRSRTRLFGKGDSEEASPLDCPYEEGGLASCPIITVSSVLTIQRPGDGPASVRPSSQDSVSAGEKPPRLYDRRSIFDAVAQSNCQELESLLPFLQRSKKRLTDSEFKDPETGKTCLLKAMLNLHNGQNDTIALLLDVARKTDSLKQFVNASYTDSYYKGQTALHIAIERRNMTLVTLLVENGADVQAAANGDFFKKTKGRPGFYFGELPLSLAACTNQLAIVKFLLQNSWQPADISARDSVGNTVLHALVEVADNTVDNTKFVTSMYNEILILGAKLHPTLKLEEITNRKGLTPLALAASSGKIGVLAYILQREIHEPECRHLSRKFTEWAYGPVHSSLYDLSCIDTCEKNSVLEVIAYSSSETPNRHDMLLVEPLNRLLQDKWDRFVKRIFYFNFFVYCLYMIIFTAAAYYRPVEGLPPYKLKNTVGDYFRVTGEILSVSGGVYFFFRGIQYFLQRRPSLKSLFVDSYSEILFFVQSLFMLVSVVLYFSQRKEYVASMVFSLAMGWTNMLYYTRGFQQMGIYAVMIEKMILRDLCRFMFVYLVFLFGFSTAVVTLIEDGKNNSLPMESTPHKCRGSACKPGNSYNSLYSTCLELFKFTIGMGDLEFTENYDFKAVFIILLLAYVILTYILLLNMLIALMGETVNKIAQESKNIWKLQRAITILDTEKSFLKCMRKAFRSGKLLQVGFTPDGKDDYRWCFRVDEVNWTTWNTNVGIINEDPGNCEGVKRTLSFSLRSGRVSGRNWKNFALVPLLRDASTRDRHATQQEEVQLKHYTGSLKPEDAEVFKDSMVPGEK
T4 sequence (Q8R455 whole entry): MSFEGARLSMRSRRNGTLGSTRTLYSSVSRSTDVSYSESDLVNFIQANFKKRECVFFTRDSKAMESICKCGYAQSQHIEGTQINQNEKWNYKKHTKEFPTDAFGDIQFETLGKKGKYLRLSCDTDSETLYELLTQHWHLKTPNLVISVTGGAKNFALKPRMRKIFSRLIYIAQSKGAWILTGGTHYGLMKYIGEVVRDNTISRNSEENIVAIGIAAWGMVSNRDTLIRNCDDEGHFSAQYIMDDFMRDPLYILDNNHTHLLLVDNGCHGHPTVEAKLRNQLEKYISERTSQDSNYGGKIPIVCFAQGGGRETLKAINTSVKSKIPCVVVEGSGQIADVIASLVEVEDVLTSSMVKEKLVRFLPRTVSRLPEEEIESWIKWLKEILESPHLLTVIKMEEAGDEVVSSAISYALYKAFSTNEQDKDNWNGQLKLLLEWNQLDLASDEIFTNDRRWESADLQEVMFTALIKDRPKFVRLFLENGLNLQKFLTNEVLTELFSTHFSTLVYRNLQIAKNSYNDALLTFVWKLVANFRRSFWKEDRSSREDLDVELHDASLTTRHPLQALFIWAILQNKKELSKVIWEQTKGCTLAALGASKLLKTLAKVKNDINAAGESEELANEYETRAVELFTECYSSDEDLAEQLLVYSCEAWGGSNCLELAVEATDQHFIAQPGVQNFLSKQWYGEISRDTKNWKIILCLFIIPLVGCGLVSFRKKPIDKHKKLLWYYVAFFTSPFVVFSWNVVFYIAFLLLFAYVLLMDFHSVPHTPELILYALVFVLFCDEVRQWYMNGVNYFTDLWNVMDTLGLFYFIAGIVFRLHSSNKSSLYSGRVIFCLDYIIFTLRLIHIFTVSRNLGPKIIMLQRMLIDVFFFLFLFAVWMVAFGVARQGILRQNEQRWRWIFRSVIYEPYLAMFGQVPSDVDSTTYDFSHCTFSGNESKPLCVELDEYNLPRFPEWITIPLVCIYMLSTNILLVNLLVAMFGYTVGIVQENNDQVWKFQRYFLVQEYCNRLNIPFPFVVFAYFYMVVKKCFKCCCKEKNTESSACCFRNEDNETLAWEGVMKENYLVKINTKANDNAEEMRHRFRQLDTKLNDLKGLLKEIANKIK
T6 sequence (Q8BLA8 whole entry): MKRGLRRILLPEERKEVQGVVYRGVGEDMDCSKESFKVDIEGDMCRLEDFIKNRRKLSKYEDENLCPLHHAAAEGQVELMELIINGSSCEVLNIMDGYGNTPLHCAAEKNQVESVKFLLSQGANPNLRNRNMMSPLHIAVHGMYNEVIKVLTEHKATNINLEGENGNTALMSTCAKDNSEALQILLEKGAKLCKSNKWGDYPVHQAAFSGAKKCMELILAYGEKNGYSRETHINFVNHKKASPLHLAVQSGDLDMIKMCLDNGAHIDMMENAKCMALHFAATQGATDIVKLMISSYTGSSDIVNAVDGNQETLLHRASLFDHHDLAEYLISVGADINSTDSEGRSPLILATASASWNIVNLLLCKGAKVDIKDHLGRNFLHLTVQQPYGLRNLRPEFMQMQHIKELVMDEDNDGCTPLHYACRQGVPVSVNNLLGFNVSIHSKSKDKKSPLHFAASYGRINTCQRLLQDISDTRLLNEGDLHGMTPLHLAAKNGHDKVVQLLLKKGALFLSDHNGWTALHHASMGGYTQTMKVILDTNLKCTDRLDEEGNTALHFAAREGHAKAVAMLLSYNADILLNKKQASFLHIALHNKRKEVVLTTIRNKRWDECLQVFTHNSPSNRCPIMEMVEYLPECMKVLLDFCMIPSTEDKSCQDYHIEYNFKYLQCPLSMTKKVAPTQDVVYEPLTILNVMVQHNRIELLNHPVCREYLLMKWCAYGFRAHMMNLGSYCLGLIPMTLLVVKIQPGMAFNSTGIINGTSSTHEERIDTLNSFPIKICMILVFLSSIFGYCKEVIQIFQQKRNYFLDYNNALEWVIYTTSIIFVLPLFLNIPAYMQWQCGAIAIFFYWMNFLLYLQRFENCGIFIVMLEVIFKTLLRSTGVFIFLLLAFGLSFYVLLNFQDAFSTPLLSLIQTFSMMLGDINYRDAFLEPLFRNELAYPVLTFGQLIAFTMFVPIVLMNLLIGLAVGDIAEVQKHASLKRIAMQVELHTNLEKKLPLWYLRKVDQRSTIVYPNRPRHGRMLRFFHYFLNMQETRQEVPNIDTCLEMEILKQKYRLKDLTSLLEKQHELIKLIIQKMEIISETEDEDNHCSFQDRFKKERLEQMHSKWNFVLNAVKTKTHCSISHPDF

Hill coefficient nH (TRPV2): 2.9 ± 0.50
reduction in current amplitude (TRPV2; 10 μM dyclonine, 2-APB-activated): 6% ± 1%
IC50 (TRPV3 I644W): 26.1 ± 2.8 µM
Hill coefficient nH (human TRPV3 (hTRPV3)): 1.91 ± 0.14
IC50 (human TRPV3 (hTRPV3); 2-APB (100 μM)-evoked, –60 mV, read-out: IC50 on blocking of hTRPV3): 16.2 ± 0.72 µM
Hill coefficient nH (TRPM8): 1.2 ± 0.20
reduction in current amplitude (TRPM8; 10 μM dyclonine, menthol-activated): 9% ± 2%
Hill coefficient nH (TRPV1): 2.0 ± 0.31
reduction in current amplitude (TRPV1; 10 μM dyclonine, capsaicin-activated): 2% ± 1%
Hill coefficient nH (TRPA1): 1.3 ± 0.15
reduction in current amplitude (TRPA1; 10 μM dyclonine, AITC-activated): 5% ± 1%
IC50 (TRPV3 I637A): 6.1 ± 0.43 µM
IC50 (TRPV3 F666A): 414 ± 15.7 µM
SMILES: CCCCOc1ccc(C(=O)CCN2CCCCC2)cc1 [dyclonine]
paw withdrawal latencies (PWL) ([1]; TRPV3+/+ mice, intraplantar 10 μM dyclonine): 18.08 ± 0.03 s
paw withdrawal latencies (PWL) ([1]; TRPV3+/+ mice, intraplantar 50 μM dyclonine): 18.82 ± 0.42 s
paw withdrawal latencies (PWL) ([1]; TRPV3-/- mice, intraplantar 10 μM dyclonine): 18.23 ± 0.52 s
paw withdrawal latencies (PWL) ([1]; TRPV3-/- mice, intraplantar 50 μM dyclonine): 18.61 ± 0.46 s

From publication PMC8112869, “Therapeutic inhibition of keratinocyte TRPV3 sensory channel by local anesthetic dyclonine” (eLife, 2021)
